Common to all, as to format: biochemical
For assay [1], the target named is MLL1 (Homo sapiens, UniProt Q03164). Briefly: PMT filter-paper methylation assay, MLL1. The protocol:
(§1) Methylation Reaction. The 20 μL methylation reaction was carried out at ambient temperature using two mixtures: A. 10 μl of enzyme mixture in the assay buffer containing 50 mM Hepes (pH=8.0), 0.005% Tween-20, 5 μg/ml BSA and 1 mM TCEP; B. 10 μl of a mixture of 1.5 μM, 0.15 μCi [^3H-Me]-SAM cofactor and 3 μM of the corresponding peptide substrate in the same assay buffer. After A and B were mixed for a designated time period, the reaction mixture was examined with our filter-paper assay.
(§2) Filter-paper Assay. This assay relies on Whatman P-81 filter paper, which binds peptides but not SAM. Protein Methyl Transferases (PMTs) transfer ^3H-Me of [^3H-Me]-SAM to peptide substrates and the resultant ^3H-methylated, filter-paper-bound peptide is quantified with a scintillation counter. […] The radioactivity was quantified by a Beckman LS6000IC liquid scintillation counter.
(§3) Dose-response Curves and IC50. […] After incubating the reaction mixture for the respective reaction time, the conversion was quantified with the filter paper assay as described above. The inhibition was expressed as the percentage between the high control (no inhibition) and the low control (no enzyme) as follows: Percentage Inhibition=[(high control−reading)/(high control−low control)]×100%. […]

Assay [2] has as its target T1, SET7/9 (Homo sapiens, UniProt Q8WTS6).
T1 construct: SET7/9 Full-length
T1 sequence (Q8WTS6 1-366): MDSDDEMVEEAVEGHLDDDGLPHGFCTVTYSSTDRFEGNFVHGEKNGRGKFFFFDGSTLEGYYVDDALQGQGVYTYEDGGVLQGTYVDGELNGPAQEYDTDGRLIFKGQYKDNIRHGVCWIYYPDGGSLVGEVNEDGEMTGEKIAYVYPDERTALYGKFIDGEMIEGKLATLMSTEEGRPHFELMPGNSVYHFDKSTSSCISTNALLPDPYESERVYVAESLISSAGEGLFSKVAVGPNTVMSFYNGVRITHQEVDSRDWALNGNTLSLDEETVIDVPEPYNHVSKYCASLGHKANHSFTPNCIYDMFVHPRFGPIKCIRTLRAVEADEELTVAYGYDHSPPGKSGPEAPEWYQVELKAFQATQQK
Briefly: PMT filter-paper methylation assay, SET7/9. The note with it: SET7/9 full-length 150 nM final, H3 (1-21 aa), 3 h. The protocol:
as §1, §2, §3

The target in assay [3] is T2, PRMT1 (Homo sapiens, UniProt Q99873).
T2 construct: PRMT1 (10-352)
T2 sequence (Q99873 10-352 isoform Q99873-3): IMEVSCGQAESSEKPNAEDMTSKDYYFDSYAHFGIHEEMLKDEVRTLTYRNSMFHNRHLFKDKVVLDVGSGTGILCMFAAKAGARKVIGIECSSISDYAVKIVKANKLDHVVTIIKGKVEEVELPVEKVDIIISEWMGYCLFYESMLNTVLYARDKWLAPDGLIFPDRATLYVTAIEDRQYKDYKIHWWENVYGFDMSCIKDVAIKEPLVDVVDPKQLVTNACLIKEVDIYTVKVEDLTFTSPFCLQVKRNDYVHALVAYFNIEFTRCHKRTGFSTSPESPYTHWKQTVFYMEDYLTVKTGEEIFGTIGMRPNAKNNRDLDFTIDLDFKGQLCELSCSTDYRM
Briefly: PMT filter-paper methylation assay, PRMT1. The note with it: PRMT1 (10-352), 100 nm, RGG substrate, 1.5 h.

Assay [4] has as its target T3, SMYD3 (Homo sapiens, UniProt Q9H7B4).
T3 sequence (Q9H7B4 1-428): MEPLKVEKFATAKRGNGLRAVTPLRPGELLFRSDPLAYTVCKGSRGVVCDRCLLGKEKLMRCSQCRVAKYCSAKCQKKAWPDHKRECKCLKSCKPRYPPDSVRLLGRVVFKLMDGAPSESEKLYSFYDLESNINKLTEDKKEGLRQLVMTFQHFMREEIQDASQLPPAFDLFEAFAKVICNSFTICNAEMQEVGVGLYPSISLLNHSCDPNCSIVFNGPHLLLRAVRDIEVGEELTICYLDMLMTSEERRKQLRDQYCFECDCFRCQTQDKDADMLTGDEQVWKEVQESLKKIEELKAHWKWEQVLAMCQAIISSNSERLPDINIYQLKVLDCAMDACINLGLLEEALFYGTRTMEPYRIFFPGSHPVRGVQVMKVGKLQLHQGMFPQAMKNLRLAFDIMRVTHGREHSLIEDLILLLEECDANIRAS
As to the kind of experiment: PMT filter-paper methylation assay, SMYD3. The note with it: SMYD3 125 nM final, MAP3K2 (1-350 aa), 2 h. The procedure:
as §1, §2, §3

The target of assay [5] is PRMT8 (Homo sapiens, UniProt Q9NR22). As to the kind of experiment: PMT filter-paper methylation assay, PRMT8. The protocol:
as §1, §2, §3

Assay [6] addresses T4, SET8 (Homo sapiens, UniProt Q9NQR1).
T4 construct: SET8 (191-352)
T4 sequence (Q9NQR1 191-352 isoform Q9NQR1-2): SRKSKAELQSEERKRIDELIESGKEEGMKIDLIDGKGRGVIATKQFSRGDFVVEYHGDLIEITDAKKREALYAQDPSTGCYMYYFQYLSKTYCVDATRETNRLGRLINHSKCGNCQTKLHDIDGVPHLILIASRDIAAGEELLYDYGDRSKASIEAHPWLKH
As to the kind of experiment: PMT filter-paper methylation assay, SET8. The note with it: SET8 (191-352) 1000 nM final, H4 (10-30 aa), 8 h. The procedure: as §1, §2, §3

The target of assay [7] is T5, PRMT3 (Homo sapiens, UniProt O60678).
T5 construct: PRMT3 (211-531)
T5 sequence (O60678 211-531): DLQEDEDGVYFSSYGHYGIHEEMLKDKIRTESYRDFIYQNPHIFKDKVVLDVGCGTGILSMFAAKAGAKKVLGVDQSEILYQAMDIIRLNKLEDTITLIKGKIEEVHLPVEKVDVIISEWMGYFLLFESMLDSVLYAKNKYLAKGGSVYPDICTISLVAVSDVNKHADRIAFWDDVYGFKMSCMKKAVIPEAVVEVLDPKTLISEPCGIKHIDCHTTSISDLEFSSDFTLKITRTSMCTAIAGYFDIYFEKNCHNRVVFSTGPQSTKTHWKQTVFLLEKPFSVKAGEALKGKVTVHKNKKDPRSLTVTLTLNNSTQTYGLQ
As to the kind of experiment: PMT filter-paper methylation assay, PRMT3. The note with it: PRMT3 (211-531) 100 nM final, RGG, 3 h.

Assay [8] deals with T6, CARM1 (Homo sapiens, UniProt Q86X55).
T6 construct: CARM1 (19-608)
T6 sequence (Q86X55 19-608): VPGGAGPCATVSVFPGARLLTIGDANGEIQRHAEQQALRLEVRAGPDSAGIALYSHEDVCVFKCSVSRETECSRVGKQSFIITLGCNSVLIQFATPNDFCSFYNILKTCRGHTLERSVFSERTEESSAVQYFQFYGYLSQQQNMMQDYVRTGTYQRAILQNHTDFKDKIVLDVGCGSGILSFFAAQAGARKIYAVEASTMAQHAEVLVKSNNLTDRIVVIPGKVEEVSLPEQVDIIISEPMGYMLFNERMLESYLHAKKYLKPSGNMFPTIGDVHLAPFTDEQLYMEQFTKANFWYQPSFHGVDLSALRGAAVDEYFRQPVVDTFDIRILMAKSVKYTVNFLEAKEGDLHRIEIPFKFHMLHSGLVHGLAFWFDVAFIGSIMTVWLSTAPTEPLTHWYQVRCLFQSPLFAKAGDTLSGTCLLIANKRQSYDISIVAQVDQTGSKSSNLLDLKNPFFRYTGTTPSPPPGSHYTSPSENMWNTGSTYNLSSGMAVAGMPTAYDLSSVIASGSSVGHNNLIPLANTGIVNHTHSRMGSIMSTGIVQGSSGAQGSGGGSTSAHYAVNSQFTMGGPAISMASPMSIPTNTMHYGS
Briefly: PMT filter-paper methylation assay, CARM1. As to conditions: H3 (1-40 aa), 7 h.

For assay [9], the target named is T7, GLP1 (Homo sapiens, UniProt Q9H9B1).
T7 construct: GLP1 (951-1235)
T7 sequence (Q9H9B1 982-1266): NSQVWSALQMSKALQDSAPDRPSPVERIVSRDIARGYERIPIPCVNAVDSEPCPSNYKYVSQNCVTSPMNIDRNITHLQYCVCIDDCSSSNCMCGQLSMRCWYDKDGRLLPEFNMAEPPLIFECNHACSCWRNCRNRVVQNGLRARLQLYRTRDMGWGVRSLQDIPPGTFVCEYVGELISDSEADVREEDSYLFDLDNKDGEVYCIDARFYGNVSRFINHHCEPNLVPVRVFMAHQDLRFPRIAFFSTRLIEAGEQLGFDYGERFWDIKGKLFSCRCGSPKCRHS
Briefly: PMT filter-paper methylation assay, GLP1. As to conditions: GLP1 (951-1235) 10 nM final, H3 (1-21 aa), 1 h. The procedure: as §1, §2, §3

Assay [10] concerns the target T8, G9a (Homo sapiens, UniProt Q96KQ7).
T8 construct: G9a (913-1913)
T8 sequence (Q96KQ7 913-1193 limits assumed): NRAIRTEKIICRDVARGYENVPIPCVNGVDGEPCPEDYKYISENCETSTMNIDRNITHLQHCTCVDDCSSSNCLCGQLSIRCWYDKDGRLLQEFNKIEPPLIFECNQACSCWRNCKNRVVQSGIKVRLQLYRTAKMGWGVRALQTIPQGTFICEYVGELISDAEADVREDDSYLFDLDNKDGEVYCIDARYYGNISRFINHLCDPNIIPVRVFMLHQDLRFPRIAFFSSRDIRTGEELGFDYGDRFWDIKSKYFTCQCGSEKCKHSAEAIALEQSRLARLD
As to the kind of experiment: PMT filter-paper methylation assay, G9a. The note with it: G9a (913-1913) 20 nM final, H3 (1-21 aa), 1 h.

Assay [11] has as its target T9, SMYD2-FL (Homo sapiens, UniProt Q9NRG4).
T9 construct: SMYD2 Full-length
As to the kind of experiment: PMT filter-paper methylation assay, SMYD2. As to conditions: SMYD2 full-length 50 nM final, p53 (360-393 aa), 10 h. The protocol:
as §1, §2, §3

Assay [12] concerns the target T10, SETD2 (Homo sapiens, UniProt Q9BYW2).
T10 construct: SETD2 (1347-1711)
T10 sequence (Q9BYW2 1347-1711): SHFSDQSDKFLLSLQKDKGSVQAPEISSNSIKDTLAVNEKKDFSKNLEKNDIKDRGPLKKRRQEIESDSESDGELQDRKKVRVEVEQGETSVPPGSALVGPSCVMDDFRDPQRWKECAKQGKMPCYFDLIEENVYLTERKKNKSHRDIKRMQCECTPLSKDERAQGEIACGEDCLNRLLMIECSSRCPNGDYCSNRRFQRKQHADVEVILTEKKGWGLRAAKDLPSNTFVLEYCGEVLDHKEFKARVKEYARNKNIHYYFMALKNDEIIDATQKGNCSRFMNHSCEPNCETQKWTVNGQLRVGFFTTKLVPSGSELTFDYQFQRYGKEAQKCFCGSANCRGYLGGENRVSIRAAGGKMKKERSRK
Briefly: PMT filter-paper methylation assay, SETD2. The note with it: SETD2 (1347-1711) 250 nM final, H3 (20-50 aa), 4 h. The procedure:
as §1, §2, §3

In assay [13] the target is T11, SUV39H2 (Homo sapiens, UniProt Q9H5I1).
T11 construct: SUV39H2 (112-410)
T11 sequence (Q9H5I1 112-410): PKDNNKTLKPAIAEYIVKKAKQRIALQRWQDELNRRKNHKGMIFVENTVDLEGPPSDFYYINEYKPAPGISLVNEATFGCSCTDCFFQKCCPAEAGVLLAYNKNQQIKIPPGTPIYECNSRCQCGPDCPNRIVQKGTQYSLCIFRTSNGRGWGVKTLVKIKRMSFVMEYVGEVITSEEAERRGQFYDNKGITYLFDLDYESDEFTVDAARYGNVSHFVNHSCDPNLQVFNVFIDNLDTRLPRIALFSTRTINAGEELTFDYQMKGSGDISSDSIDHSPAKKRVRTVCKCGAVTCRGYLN
Briefly: PMT filter-paper methylation assay, SUV39H2. As to conditions: SUV39H2 (112-410) 5 nM final, H3 (1-21 aa), 4 h.

Like-named read-outs stand apart in the source and are kept apart here.

T9 sequence (Q9NRG4 whole entry): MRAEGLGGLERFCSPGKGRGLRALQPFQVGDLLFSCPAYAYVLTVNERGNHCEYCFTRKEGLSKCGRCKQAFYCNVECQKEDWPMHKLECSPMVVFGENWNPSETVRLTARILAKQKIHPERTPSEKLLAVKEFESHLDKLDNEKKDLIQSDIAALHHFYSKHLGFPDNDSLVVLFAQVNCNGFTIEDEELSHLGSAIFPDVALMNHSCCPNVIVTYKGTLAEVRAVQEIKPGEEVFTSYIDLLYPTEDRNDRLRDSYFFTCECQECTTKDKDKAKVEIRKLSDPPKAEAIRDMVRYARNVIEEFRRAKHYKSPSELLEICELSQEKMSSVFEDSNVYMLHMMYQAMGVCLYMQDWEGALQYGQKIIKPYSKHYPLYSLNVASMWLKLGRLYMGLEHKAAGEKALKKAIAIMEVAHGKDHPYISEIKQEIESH
Chain of PRMT8 (Q9NR22 whole entry): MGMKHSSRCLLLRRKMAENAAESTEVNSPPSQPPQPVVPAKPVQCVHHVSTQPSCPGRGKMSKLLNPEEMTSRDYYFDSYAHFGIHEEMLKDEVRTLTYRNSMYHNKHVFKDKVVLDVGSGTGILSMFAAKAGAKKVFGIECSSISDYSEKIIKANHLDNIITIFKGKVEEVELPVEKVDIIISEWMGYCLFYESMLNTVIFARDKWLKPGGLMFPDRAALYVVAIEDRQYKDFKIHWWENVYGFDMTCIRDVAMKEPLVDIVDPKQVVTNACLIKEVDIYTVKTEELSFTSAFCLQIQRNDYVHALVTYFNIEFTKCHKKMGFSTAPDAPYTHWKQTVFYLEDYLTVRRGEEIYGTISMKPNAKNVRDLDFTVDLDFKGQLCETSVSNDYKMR

For `CC(C)(C)c1ccc(NC(=O)NCCC[C@H](CNCc2ccccc2)C[C@H]2O[C@@H](n3cnc4c(N)ncnc43)C(O)C2O)cc1` (some centres unmarked) [Example 104], the IC50 (as a rule, the point on the concentration scale where inhibition reaches its midpoint) in assay [1] was 4.5 µM; in assay [2] it was greater than 50 µM; in [3], greater than 50 µM; in [4], greater than 50 µM; in assay [5], greater than 50 µM; in assay [6], greater than 50 µM. For the same compound, the IC50 in assay [7] was greater than 50 µM; in assay [8] (CARM1 (19-608)^a 300 nM final enzyme, read-out: IC50 CARM1^a) it was 0.3 µM; in [8] (CARM1 (19-608)^b 25 nM final enzyme, read-out: IC50 CARM1^b), 0.05 µM; in [9], greater than 50 µM; in assay [10], greater than 50 µM; in assay [11] it was greater than 50 µM. The IC50 in [12] was 45 µM; in assay [13] it was greater than 50 µM.
